Measured values from PubChem BioAssay AID330 (DTP/NCI, 2004).
Values joined by “and” are separate entries in the source; they are usually repeats but may differ in a detail not shown here. Identical values can stand only once. Toxic doses and inconclusive results are not listed.

Test system: P388 leukemia ip, CD2F1 mice, survival T/C
Assay: NCI In Vivo Anticancer Drug Screen. Data for tumor model P388 Leukemia (intraperitoneal) in CD2F1 (CDF1) mice
Conditions: endpoint: median survival time, higher = longer survival
In short: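 Mice carrying the transplanted tumor received test compound or vehicle. Survival was recorded in each group, and the value is the treated-group measurement divided by that of the vehicle-treated control group.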

[1] = dose: 50.0 mg/kg/injection, schedule: Q01DX009 (ip), vehicle: Klucel (hydroxypropylcellulose) (HPC)
[2] = dose: 100.0 mg/kg/injection, schedule: Q01DX009 (ip), vehicle: Klucel (hydroxypropylcellulose) (HPC)
[3] = dose: 200.0 mg/kg/injection, schedule: Q01DX009 (ip), vehicle: Klucel (hydroxypropylcellulose) (HPC)
[4] = dose: 60.0 mg/kg/injection, schedule: Q01DX005 (ip), vehicle: Klucel (hydroxypropylcellulose) (HPC)
[5] = dose: 120.0 mg/kg/injection, schedule: Q01DX005 (ip), vehicle: Klucel (hydroxypropylcellulose) (HPC)
[6] = dose: 240.0 mg/kg/injection, schedule: Q01DX005 (ip), vehicle: Klucel (hydroxypropylcellulose) (HPC)
[7] = dose: 100.0 mg/kg/injection, schedule: Q01DX001 (ip), vehicle: Klucel (hydroxypropylcellulose) (HPC)
[8] = dose: 50.0 mg/kg/injection, schedule: Q01DX005 (ip), vehicle: saline with Tween-80
[9] = dose: 100.0 mg/kg/injection, schedule: Q01DX005 (ip), vehicle: saline with Tween-80
[10] = dose: 200.0 mg/kg/injection, schedule: Q01DX005 (ip), vehicle: saline with Tween-80
[11] = dose: 240.0 mg/kg/injection, schedule: Q01DX005 (ip), vehicle: saline with Tween-80

Compound: COc1cc2c(c(OC)c1OC)-c1ccc(SC)c(=O)cc1C(NC(=O)c1ccccc1)CC2 (configuration not stated)
- T/C (dose: 2.5 mg/kg/injection, schedule: Q01DX009 (ip), vehicle: Klucel (hydroxypropylcellulose) (HPC)): 155 % of control
- T/C (dose: 5.0 mg/kg/injection, schedule: Q01DX009 (ip), vehicle: Klucel (hydroxypropylcellulose) (HPC)): 117 % of control
- T/C (dose: 625.0 micrograms/kg/injection, schedule: Q01DX009 (ip), vehicle: Klucel (hydroxypropylcellulose) (HPC)): 112 % of control
- T/C (dose: 1250.0 micrograms/kg/injection, schedule: Q01DX009 (ip), vehicle: Klucel (hydroxypropylcellulose) (HPC)): 120 % of control
- T/C (dose: 10000.0 micrograms/kg/injection, schedule: Q01DX009 (ip), vehicle: Klucel (hydroxypropylcellulose) (HPC)): 90 % of control

Compound: COc1ccc(C2C(C#N)=C(N)Oc3c2c(C)nn3-c2ccccc2)cc1 (configuration not stated)
- T/C [1]: 89 % of control and 92 % of control
- T/C [2]: 99 % of control and 96 % of control
- T/C [3]: 90 % of control and 97 % of control

Compound: NCCSSc1ccc([N+](=O)[O-])cc1
- T/C (dose: 12.5 mg/kg/injection, schedule: Q04DX002 (ip), vehicle: Klucel (hydroxypropylcellulose) (HPC)): 95 % of control
- T/C (dose: 25.0 mg/kg/injection, schedule: Q04DX002 (ip), vehicle: Klucel (hydroxypropylcellulose) (HPC)): 86 % of control

Compound: BrCC1CN=C(c2ccccc2)O1 (configuration not stated)
- T/C (dose: 60.0 mg/kg/injection, schedule: Q01DX005 (ip), vehicle: saline): 104 % of control
- T/C (dose: 120.0 mg/kg/injection, schedule: Q01DX005 (ip), vehicle: saline): 101 % of control
- T/C (dose: 240.0 mg/kg/injection, schedule: Q01DX005 (ip), vehicle: saline): 101 % of control

Compound: C1CNCCNCCNCCN1
- T/C (dose: 12.5 mg/kg/injection, schedule: Q01DX009 (ip), vehicle: water): 101 % of control
- T/C (dose: 25.0 mg/kg/injection, schedule: Q01DX009 (ip), vehicle: water): 96 % of control
- T/C (dose: 50.0 mg/kg/injection, schedule: Q01DX009 (ip), vehicle: water): 100 % of control
- T/C (dose: 100.0 mg/kg/injection, schedule: Q01DX009 (ip), vehicle: water): 101 % of control

Compound: Nc1cc(N)c([N+](=O)[O-])cc1[N+](=O)[O-]
- T/C (dose: 100.0 mg/kg/injection, schedule: Q04DX003 (ip), vehicle: saline with Tween-80): 91 % of control
- T/C (dose: 200.0 mg/kg/injection, schedule: Q04DX003 (ip), vehicle: saline with Tween-80): 100 % of control
- T/C (dose: 400.0 mg/kg/injection, schedule: Q04DX003 (ip), vehicle: saline with Tween-80): 87 % of control

Compound: Cn1c(N)nc2c([nH]c(=O)n2C2OC(CO)C(O)C2O)c1=O (configuration not stated)
- T/C [4]: 105 % of control
- T/C [5]: 111 % of control
- T/C [6]: 111 % of control

Compound: CC(C)(C)c1ccc(NC(=O)Oc2ccccc2)cc1
- T/C [1]: 102 % of control
- T/C [2]: 105 % of control
- T/C [3]: 102 % of control

Compound: CC(C)(C)C1NC(C(C)(C)C)N2C(C(C)(C)C)N12 (configuration not stated)
- T/C [7]: 100 % of control
- T/C (dose: 200.0 mg/kg/injection, schedule: Q01DX001 (ip), vehicle: Klucel (hydroxypropylcellulose) (HPC)): 90 % of control
- T/C (dose: 400.0 mg/kg/injection, schedule: Q01DX001 (ip), vehicle: Klucel (hydroxypropylcellulose) (HPC)): 102 % of control

Compound: C=C1C[C@]23C[C@@]1(O)CC[C@H]2[C@]12C=C[C@H](O1)C(C(=O)OCC)=C2[C@@H]3O
- T/C [4]: 108 % of control
- T/C [5]: 115 % of control
- T/C [6]: 120 % of control

Compound: CC(C)CC(=N)CC(C)C
- T/C [8]: 100 % of control
- T/C [9]: 100 % of control
- T/C [10]: 96 % of control

Compound: OC(CN1CCCC2CCCCC21)c1cc2ccccc2c2ccccc12 (configuration not stated)
- T/C (dose: 100.0 mg/kg/injection, schedule: Q01DX009 (ip), vehicle: saline with Tween-80): 108 % of control
- T/C (dose: 200.0 mg/kg/injection, schedule: Q01DX009 (ip), vehicle: saline with Tween-80): 104 % of control

Compound: CC1CCC(C(C)C)C(NC(=O)c2ccccn2)C1 (configuration not stated)
- T/C (dose: 100.0 mg/kg/injection, schedule: Q04DX002 (ip), vehicle: Klucel (hydroxypropylcellulose) (HPC)): 101 % of control
- T/C (dose: 200.0 mg/kg/injection, schedule: Q04DX002 (ip), vehicle: Klucel (hydroxypropylcellulose) (HPC)): 90 % of control
- T/C (dose: 400.0 mg/kg/injection, schedule: Q04DX002 (ip), vehicle: Klucel (hydroxypropylcellulose) (HPC)): 97 % of control

Compound: O=C1CCCC2OC3CCCC(=O)C3C(c3ccccc3)C12 (configuration not stated)
- T/C (dose: 25.0 mg/kg/injection, schedule: Q01DX001 (ip), vehicle: Klucel (hydroxypropylcellulose) (HPC)): 96 % of control
- T/C (dose: 50.0 mg/kg/injection, schedule: Q01DX001 (ip), vehicle: Klucel (hydroxypropylcellulose) (HPC)): 100 % of control
- T/C [7]: 90 % of control

Compound: Cc1nc2[nH]cc(-c3ccccc3)c2c(=N)n1-c1ccc(F)cc1
- T/C (dose: 6.25 mg/kg/injection, schedule: Q01DX005 (ip), vehicle: Klucel (hydroxypropylcellulose) (HPC)): 101 % of control
- T/C (dose: 12.5 mg/kg/injection, schedule: Q01DX005 (ip), vehicle: Klucel (hydroxypropylcellulose) (HPC)): 101 % of control
- T/C (dose: 25.0 mg/kg/injection, schedule: Q01DX005 (ip), vehicle: Klucel (hydroxypropylcellulose) (HPC)): 102 % of control

Compound: O=C(CC(=O)N1N=C(N(c2ccccc2)c2ccccc2)CC1c1ccccc1)Nc1ccccc1Cl (configuration not stated)
- T/C [8]: 99 % of control
- T/C [9]: 99 % of control
- T/C [11]: 90 % of control

Compound: Cc1cc(=O)c2c(ccc3[nH]c(-c4ccco4)nc32)[nH]1
- T/C (dose: 100.0 mg/kg/injection, schedule: Q01DX001 (ip), vehicle: saline with Tween-80): 94 % of control
- T/C (dose: 200.0 mg/kg/injection, schedule: Q01DX001 (ip), vehicle: saline with Tween-80): 100 % of control
- T/C (dose: 400.0 mg/kg/injection, schedule: Q01DX001 (ip), vehicle: saline with Tween-80): 92 % of control

Compound: c1ccc2c3c(cc(CNCCNCc4cc5c(c6ccccc46)CCCC5)c2c1)CCCC3
- T/C [8]: 87 % of control
- T/C [9]: 96 % of control
- T/C [10]: 110 % of control

Compound: CCNCc1cc(Nc2nc(NC3CCC(N(C)C)CC3)c3ccccc3n2)ccc1OC (configuration not stated)
- T/C (dose: 5.0 mg/kg/injection, schedule: Q01DX009 (ip), vehicle: saline sonified): 100 % of control
- T/C (dose: 10.0 mg/kg/injection, schedule: Q01DX009 (ip), vehicle: saline sonified): 109 % of control
- T/C (dose: 20.0 mg/kg/injection, schedule: Q01DX009 (ip), vehicle: saline sonified): 113 % of control

Compound: Cc1[nH]c2ccc(CN)cc2c1CC(N)C(=O)O (configuration not stated)
- T/C (dose: 100.0 mg/kg/injection, schedule: Q01DX001 (ip), vehicle: saline): 110 % of control
- T/C (dose: 200.0 mg/kg/injection, schedule: Q01DX001 (ip), vehicle: saline): 104 % of control
- T/C (dose: 400.0 mg/kg/injection, schedule: Q01DX001 (ip), vehicle: saline): 107 % of control

Compound: Cn1c(=O)c(Br)c(Br)c(=O)n1-c1ccc(Br)cc1
- T/C (dose: 42.5 micrograms/kg/injection, schedule: Q01DX009 (ip), vehicle: Klucel (hydroxypropylcellulose) (HPC)): 95 % of control
- T/C (dose: 85.0 micrograms/kg/injection, schedule: Q01DX009 (ip), vehicle: Klucel (hydroxypropylcellulose) (HPC)): 103 % of control
- T/C (dose: 170.0 micrograms/kg/injection, schedule: Q01DX009 (ip), vehicle: Klucel (hydroxypropylcellulose) (HPC)): 100 % of control

Compound: CC(=O)OC1C(=O)C(C)(C)CN(C(C)(C)C)CC1(C)C (configuration not stated)
- T/C (dose: 50.0 mg/kg/injection, schedule: Q01DX001 (ip), vehicle: saline sonified): 100 % of control
- T/C (dose: 100.0 mg/kg/injection, schedule: Q01DX001 (ip), vehicle: saline sonified): 104 % of control
- T/C (dose: 200.0 mg/kg/injection, schedule: Q01DX001 (ip), vehicle: saline sonified): 95 % of control

Compound: O=C(Nc1nnc(-c2ccccc2)s1)c1cc(=O)c2ccccc2o1
- T/C [8]: 93 % of control
- T/C [9]: 96 % of control
- T/C [10]: 92 % of control

Compound: CCCCCCCC/C=C\CCCCCCCCOC(N)=O
- T/C (dose: 25.0 mg/kg/injection, schedule: Q04DX003 (ip), vehicle: other): 100 % of control
- T/C (dose: 50.0 mg/kg/injection, schedule: Q04DX003 (ip), vehicle: other): 104 % of control
- T/C (dose: 100.0 mg/kg/injection, schedule: Q04DX003 (ip), vehicle: other): 104 % of control

Compound: CC1=CC(=Nc2cc(Br)c(O)c(Br)c2)C=CC1=O
- T/C (dose: 6.25 mg/kg/injection, schedule: Q01DX005 (ip), vehicle: saline): 100 % of control
- T/C (dose: 12.5 mg/kg/injection, schedule: Q01DX005 (ip), vehicle: saline): 100 % of control
- T/C (dose: 25.0 mg/kg/injection, schedule: Q01DX005 (ip), vehicle: saline): 105 % of control

Compound: CCn1cnc(CC(NC(=O)C(F)(F)F)C(=O)O)c1 (configuration not stated)
- T/C [1]: 94 % of control
- T/C [2]: 100 % of control
- T/C [3]: 98 % of control

Compound: CC1(C)OC(=O)C(=Cc2ccc(C#N)cc2)C(=O)O1
- T/C (dose: 60.0 mg/kg/injection, schedule: Q01DX005 (ip), vehicle: saline with Tween-80): 108 % of control
- T/C (dose: 120.0 mg/kg/injection, schedule: Q01DX005 (ip), vehicle: saline with Tween-80): 102 % of control
- T/C [11]: 111 % of control
